Bridge positions count the residues as written; N and C are the ends. Peptide text beside a SMILES is read from it. * marks the point of attachment. X1 = COc1cccc2c1C(=O)c1c(O)c3c(c(O)c1C2=O)C[C@@](C)(/C(CO)=N/OCC(=O)*)C[C@@H]3OC1CC(N)C(O)C(C)O1
Tested on: C8161M/T1 melanoma cells tumours
Assay: Therapeutic effect of targeting agent comprising cytotoxic effector unit on melanoma tumors
Format: in vivo, Athymic-nu mice
Conditions: 1,43 mg/kg i.v. twice a week, five doses; s.c. C8161M/T1 melanoma; FIG. 1
Procedure: 1 million C8161M/T1 melanoma cells were injected subcutaneously into flank of eight Athymic-nu mice and tumours were allowed to grow for one week. The mice were then divided into three groups those received the following treatments: • Group DMEM: two mice, DMEM only • Group Dox: two mice, 1,43 mg/kg doxorubicin dissolved in DMEM • Group pept+dox: four mice, 1,43 mg/kg Dxrb-Aoa-DLRSK (doxorubicin linked to targeting mofif LRS) dissolved in DMEM (dose equimolar to Group Dox)
Treatments were administered i.v. twice a week (Tuesdays and Fridays), total of five doses were injected. Tumours were measured with a calliper in two perpendicular directions on each injection day and on the day the animals were sacrificed. Tumour volume was calculated by the formula for ellipsoid: Volume=(length×width^2)×0.5

Compound: COc1cccc2c1C(=O)c1c(O)c3c(c(O)c1C2=O)C[C@@](C)(/C(CO)=N/OCC(=O)N[C@H]1CC(=O)NCCCC[C@@H](C(=O)O)NC(=O)[C@H](CO)NC(=O)[C@H](CCCNC(=N)N)NC(=O)[C@H](CC(C)C)NC1=O)C[C@@H]3OC1CC(N)C(O)C(C)O1 (some centres unmarked) [Dxrb-Aoa-DLRSK] (X1-DLRSK-OH; lactam 1-5)
- selective targeting to melanoma tumor in vivo: selectively targets to melanoma tumor in vivo
- therapeutic effect (tumour volume) compared with doxorubicin: significantly increases the therapeutic effect of doxorubicin
